Assay [1] has as its system E. coli ATCC 25922. In words: microbe, parasite or virus in culture. The conditions noted are these: Escherichia coli.
The subject of assay [2] is MRSA ATCC 43300. In words: microbe, parasite or virus in culture. The settings on record: Staphylococcus aureus, ATCC43300|MRSA.
Assay [3] relates to A. baumannii ATCC 19606. In words: microbe, parasite or virus in culture. The settings on record: Acinetobacter baumannii.
Assay [4] relates to E. coli ATCC 25922. It counts as cell-based. The text has this:
Antibacterial activity testing (in solid media).

Read-outs that look alike come from different tables or passages of the source. No end group written: not given here.

Data on two compounds can be found in patent EP3117830A1, “ANTIBACTERIAL PEPTIDES, AND USES THEREOF” (Nuritas Limited, priority 2015, dated 2017).

Regarding `O=C(O)c1cn(C2CC2)c2cc(N3CCNCC3)c(F)cc2c1=O` [CIP, Ciprofloxacin], the zone of inhibition at 64 µg/mL in assay [1] (ATCC25922, read-out: Inhibition zone diameter (mm) E. coli ATCC 25922 Rep 1) amounted to 42 mm; in assay [1] (ATCC25922, read-out: Inhibition zone diameter (mm) E. coli ATCC 25922 Rep 2), 40 mm; in assay [1] (ATCC25922, read-out: Inhibition zone diameter (mm) E. coli ATCC 25922 Rep 3) it was 42 mm; in assay [2] (read-out: Inhibition zone diameter (mm) MRSA ATCC 43300 Rep 1), 27 mm; in assay [2] (read-out: Inhibition zone diameter (mm) MRSA ATCC 43300 Rep 2), 28 mm; in assay [2] (read-out: Inhibition zone diameter (mm) MRSA ATCC 43300 Rep 3) it was 29 mm. Besides, the zone of inhibition at 64 µg/mL is 27 mm in assay [3] (ATCC19606, read-out: Inhibition zone diameter (mm) A. baumannii ATCC 19606 Rep 1); 28 mm in assay [3] (ATCC19606, read-out: Inhibition zone diameter (mm) A. baumannii ATCC 19606 Rep 2); 27 mm in assay [3] (ATCC19606, read-out: Inhibition zone diameter (mm) A. baumannii ATCC 19606 Rep 3).
On to LNSQKFPILNLVQLSATR [I_87_SF], for which, in assay [4], the inhibition zone was 9-10 mm.
